Literature values as cited in PMC9603901, “Therapeutic Potential of Antimicrobial Peptide PN5 against Multidrug-Resistant E. coli and Anti-Inflammatory Activity in a Septic Mouse Model” (Microbiology Spectrum, 2022).
In brackets after ≈: the same amount, converted by molar mass.

What was measured:
Design in all cases: method as in Asan hospital; key to susceptibility category: S: susceptible; R: resistant; I: intermediate
MDR E. coli ASEC 11 = conditions: ref Asan hospital, cited from earlier work; for MIC: ASEC 11 (ESBL), resistance information of clinical isolate; for susceptibility category: ASEC 11
MDR E. coli ASEC 2 = conditions: ref Asan hospital, cited from earlier work; for MIC: ASEC 2 (NDM-7), resistance information of clinical isolate; for susceptibility category: ASEC 2
MDR E. coli ASEC 9 = conditions: ref Asan hospital, cited from earlier work; for MIC: ASEC 9 (ESBL), resistance information of clinical isolate; for susceptibility category: ASEC 9
MDR E. coli ASEC 5 = conditions: ref Asan hospital, cited from earlier work; for MIC: ASEC 5 (ESBL), resistance information of clinical isolate; for susceptibility category: ASEC 5
MDR E. coli ASEC 4 = conditions: ref Asan hospital, cited from earlier work; for MIC: ASEC 4 (ESBL), resistance information of clinical isolate; for susceptibility category: ASEC 4
MDR E. coli ASEC 16 = conditions: ref Asan hospital, cited from earlier work; for MIC: ASEC 16 (AmpC), resistance information of clinical isolate; for susceptibility category: ASEC 16
MDR E. coli ASEC 15 = conditions: ref Asan hospital, cited from earlier work; for MIC: ASEC 15 (AmpC), resistance information of clinical isolate; for susceptibility category: ASEC 15
MDR E. coli ASEC 1 = conditions: ref Asan hospital, cited from earlier work; for MIC: ASEC 1 (carbapenemase NDM-1), resistance information of clinical isolate; for susceptibility category: ASEC 1
MDR E. coli ASEC 14 = conditions: ref Asan hospital, cited from earlier work; for MIC: ASEC 14 (AmpC), resistance information of clinical isolate; for susceptibility category: ASEC 14
MDR E. coli ASEC 3 = conditions: ref Asan hospital, cited from earlier work; for MIC: ASEC 3 (NDM-5), resistance information of clinical isolate; for susceptibility category: ASEC 3
MDR E. coli ASEC 7 = conditions: ref Asan hospital, cited from earlier work; for MIC: ASEC 7 (ESBL), resistance information of clinical isolate; for susceptibility category: ASEC 7
MDR E. coli ASEC 18 = conditions: ref Asan hospital, cited from earlier work; for MIC: ASEC 18 (AmpC), resistance information of clinical isolate; for susceptibility category: ASEC 18
MDR E. coli ASEC 10 = conditions: ref Asan hospital, cited from earlier work; for MIC: ASEC 10 (ESBL), resistance information of clinical isolate; for susceptibility category: ASEC 10
MDR E. coli ASEC 12 = conditions: ref Asan hospital, cited from earlier work; for MIC: ASEC 12 (AmpC), resistance information of clinical isolate; for susceptibility category: ASEC 12
MDR E. coli ASEC 19 = conditions: ref Asan hospital, cited from earlier work; for MIC: ASEC 19 (AmpC), resistance information of clinical isolate; for susceptibility category: ASEC 19
MDR E. coli ASEC 17 = conditions: ref Asan hospital, cited from earlier work; for MIC: ASEC 17 (AmpC), resistance information of clinical isolate; for susceptibility category: ASEC 17
MDR E. coli ASEC 6 = conditions: ref Asan hospital, cited from earlier work; for MIC: ASEC 6 (ESBL), resistance information of clinical isolate; for susceptibility category: ASEC 6
MDR E. coli ASEC 8 = conditions: ref Asan hospital, cited from earlier work; for MIC: ASEC 8 (ESBL), resistance information of clinical isolate; for susceptibility category: ASEC 8
MDR E. coli ASEC 13 = conditions: ref Asan hospital, cited from earlier work; for MIC: ASEC 13 (AmpC), resistance information of clinical isolate; for susceptibility category: ASEC 13

## CO[C@@]1(NC(=O)Cc2cccs2)C(=O)N2C(C(=O)O)=C(COC(N)=O)CS[C@@H]21 [Cefoxitin]
MDR E. coli ASEC 11
  MIC: <= 8 μg mL-1
  susceptibility category: S
MDR E. coli ASEC 2
  MIC: > 16 µg/mL
  susceptibility category: R
MDR E. coli ASEC 9
  MIC: 16 µg/mL (≈ 37.4 µM)
  susceptibility category: I
MDR E. coli ASEC 5
  MIC: > 16 µg/mL
  susceptibility category: R
MDR E. coli ASEC 4
  MIC: > 16 µg/mL
  susceptibility category: R
MDR E. coli ASEC 16
  MIC: > 16 µg/mL
  susceptibility category: R
MDR E. coli ASEC 15
  MIC: > 16 µg/mL
  susceptibility category: R
MDR E. coli ASEC 1
  MIC: > 16 µg/mL
  susceptibility category: R
MDR E. coli ASEC 14
  MIC: > 16 µg/mL
  susceptibility category: R
MDR E. coli ASEC 3
  MIC: > 16 µg/mL
  susceptibility category: R
MDR E. coli ASEC 7
  MIC: <= 8 μg mL-1
  susceptibility category: S
MDR E. coli ASEC 18
  MIC: > 16 µg/mL
  susceptibility category: R
MDR E. coli ASEC 10
  MIC: <= 8 μg mL-1
  susceptibility category: S
MDR E. coli ASEC 12
  MIC: > 16 µg/mL
  susceptibility category: R
MDR E. coli ASEC 19
  MIC: > 16 µg/mL
  susceptibility category: R
MDR E. coli ASEC 17
  MIC: > 16 µg/mL
  susceptibility category: R
MDR E. coli ASEC 6
  MIC: > 16 µg/mL
  susceptibility category: R
MDR E. coli ASEC 8
  MIC: <= 8 μg mL-1
  susceptibility category: S
MDR E. coli ASEC 13
  MIC: > 16 µg/mL
  susceptibility category: R

## C[C@@H](O)[C@H]1C(=O)N2C(C(=O)O)=C(SCCN=CN)C[C@H]12 [Imipenem]
MDR E. coli ASEC 11
  MIC: <= 1 μg mL-1
  susceptibility category: S
MDR E. coli ASEC 2
  MIC: 8 µg/mL (≈ 26.7 µM)
  susceptibility category: R
MDR E. coli ASEC 9
  MIC: <= 1 μg mL-1
  susceptibility category: S
MDR E. coli ASEC 5
  MIC: > 8 µg/mL
  susceptibility category: R
MDR E. coli ASEC 4
  MIC: > 8 µg/mL
  susceptibility category: R
MDR E. coli ASEC 16
  MIC: <= 1 μg mL-1
  susceptibility category: S
MDR E. coli ASEC 15
  MIC: <= 1 μg mL-1
  susceptibility category: S
MDR E. coli ASEC 1
  MIC: <= 4 μg mL-1
  susceptibility category: R
MDR E. coli ASEC 14
  MIC: 8 µg/mL (≈ 26.7 µM)
  susceptibility category: R
MDR E. coli ASEC 3
  MIC: > 8 µg/mL
  susceptibility category: R
MDR E. coli ASEC 7
  MIC: <= 1 μg mL-1
  susceptibility category: S
MDR E. coli ASEC 18
  MIC: <= 1 μg mL-1
  susceptibility category: S
MDR E. coli ASEC 10
  MIC: <= 1 μg mL-1
  susceptibility category: S
MDR E. coli ASEC 12
  MIC: > 8 µg/mL
  susceptibility category: R
MDR E. coli ASEC 19
  MIC: <= 1 μg mL-1
  susceptibility category: S
MDR E. coli ASEC 17
  MIC: <= 1 μg mL-1
  susceptibility category: S
MDR E. coli ASEC 6
  MIC: > 8 µg/mL
  susceptibility category: R
MDR E. coli ASEC 8
  MIC: <= 1 μg mL-1
  susceptibility category: S
MDR E. coli ASEC 13
  MIC: > 8 µg/mL
  susceptibility category: R
